Like-named read-outs stand apart in the source and are kept apart here.
Experiments:
[1] = system: Equisetum arvense and Taraxacum; details: 400 mL/m^2; for Killing Rate of Weeds: after 9 days from spraying
Excerpt: (§1) A mixture of Equisetum arvense and Taraxacum having an average height of about 20 cm and grass having an average height of about 10 cm in a test field having an area of 0.5 m^2 in Yokohama-city, Kanagawa-prefecture, Japan were subjected to a field weeding test by spraying an aqueous solution of sodium hydrogen carbonate with a watering pot in the last third of October.
(§2) An aqueous solution of sodium hydrogen carbonate having a concentration of 2.5 weight %, 5.0 weight %, 8.0 weight % and 10.0 weight %, respectively, was uniformly sprayed to a mixture of Equisetum arvense and Taraxacum and grass in an amount of 400 mL/m^2 for each. […] The killing degree of the weeds was measured by the naked eye after 9 days from spraying to determine the killing rate of weeds in the same manner as in EXAMPLE 1.

grass = details: 400 mL/m^2; for Killing Rate of Weeds: after 9 days from spraying
Excerpt: as §1, §2

[2] = system: Equisetum arvense and Taraxacum; details: 400 ml/m^2 sprayed on days 0,7,14,21, weeds cut on day 54
Excerpt: (§3) A mixture of Equisetum arvense and Taraxacum having an average height of about 5 cm and Imperata cylindrica having an average height of about 5 cm in a test field having an area of 0.5 m^2 in Yokohama-city, Kanagawa-prefecture, Japan were subjected to the following field weeding test from the last third of July to the first third of November. […] Incidentally, the area ratio of weeds was assumed as 100% when the weeds proliferated to such an extent that they completely concealed the soil surface.
(§4) A saturated aqueous solution of sodium hydrogen carbonate was sprayed to each test field in an amount of 400 ml/m^2 by a watering pot, and then sprayed in the same way after 7 days, 14 days and 21 days, respectively. The area ratio and average height of weeds were measured by the naked eye after 26 days from the start of spraying. The weeds were totally cut after 54 days from the start of spraying. Thereafter, the weeds were left to grow without spraying an aqueous solution of sodium hydrogen carbonate. The area ratio and average height of weeds were measured by the naked eye after 64 days, 67 days, 73 days, 78 days, 86 days, 91 days and 95 days, respectively, from the start of spraying. For comparison, a mixture of Equisetum arvense and Taraxacum and Imperata cylindrica, to which an aqueous solution of sodium hydrogen carbonate was not sprayed, were subjected to the same measurement with respect to an area ratio and an average height.

Imperata cylindrica = details: 400 ml/m^2 sprayed on days 0,7,14,21, weeds cut on day 54
Excerpt: as §3, §4

[3] = system: Weeds mainly consisting of Japanese nutmeg, Coix lacryma-jobi, Pueraria lobata and Solidago serotina; details: 70 g/L, 16 litter/m^2, 150 kgf/cm^2, 60 second/m^2; weeds about 60 cm; leaves turned yellow or black
[4] = system: Weeds mainly consisting of Pueraria lobata, Cayratia japonica and Solidago serotina; details: 80° C., 140 g/L, 16 litter/m^2, 150 kgf/cm^2, 60 second/m^2; weeds about 60 cm; leaves turned black
[5] = saturated aqueous solution
[6] = system: Equisetaceae weeds, Leguminosae weeds and wide leaves weeds
[7] = system: Gramineae weeds except for grass (Zoysia japonica); details: spraying once a week
[8] = 2.5-10.0 weight % solution, last third of October

Structure (SMILES): O=C([O-])O.[Na+] [sodium hydrogen carbonate]
- time after spraying from which part of the weeds started to die with leaves turned black [1, 8]: 2 to 3 days
- Killing Rate of Weeds ([1]; concentration 5.0 weight %): 30%
- Killing Rate of Weeds ([1]; concentration 8.0 weight %): 65%
- Killing Rate of Weeds ([1]; concentration 10.0 weight %): 80%
- Killing Rate of Weeds ([1]; concentration 25 weight %): 10%
- time after spraying from which part of grass started to die with leaves turned yellow (grass; [8]): 2 to 3 days
- Killing Rate of Weeds (grass; concentration 5.0 weight %): 50%
- Killing Rate of Weeds (grass; concentration 8.0 weight %): 70%
- Killing Rate of Weeds (grass; concentration 10.0 weight %): 85%
- Killing Rate of Weeds (grass; concentration 25 weight %): 40%
- Area Ratio of Weeds ([2]; 0 days passed): 50%
- Average Height ([2]; 0 days passed): 5 cm
- Area Ratio of Weeds ([2]; 7 days passed): 5%
- Average Height ([2]; 7 days passed): 0 cm
- Area Ratio of Weeds ([2]; 14 days passed): 5%
- Average Height ([2]; 14 days passed): 0 cm
- Area Ratio of Weeds ([2]; 21 days passed): 5%
- Average Height ([2]; 21 days passed): 0 cm
- Area Ratio of Weeds ([2]; 26 days passed): 5%
- Average Height ([2]; 26 days passed): 0 cm
- Area Ratio of Weeds ([2]; 54 days passed): 0%
- Average Height ([2]; 54 days passed): 0 cm
- Area Ratio of Weeds ([2]; 64 days passed): 0%
- Average Height ([2]; 64 days passed): 0 cm
- Area Ratio of Weeds ([2]; 67 days passed): 0%
- Average Height ([2]; 67 days passed): 0 cm
- Area Ratio of Weeds ([2]; 73 days passed): 5%
- Average Height ([2]; 73 days passed): 5 cm
- Area Ratio of Weeds ([2]; 78 days passed): 10%
- Average Height ([2]; 78 days passed): 7 cm
- Area Ratio of Weeds ([2]; 86 days passed): 10%
- Average Height ([2]; 86 days passed): 10 cm
- Area Ratio of Weeds ([2]; 91 days passed): 20%
- Average Height ([2]; 91 days passed): 10 cm
- Area Ratio of Weeds ([2]; 95 days passed): 20%
- Average Height ([2]; 95 days passed): 10 cm
- Area Ratio of Weeds (Imperata cylindrica; 0 days passed): 5%
- Average Height (Imperata cylindrica; 0 days passed): 5 cm
- Area Ratio of Weeds (Imperata cylindrica; 7 days passed): 10%
- Average Height (Imperata cylindrica; 7 days passed): 15 cm
- Area Ratio of Weeds (Imperata cylindrica; 14 days passed): 30%
- Average Height (Imperata cylindrica; 14 days passed): 25 cm
- Area Ratio of Weeds (Imperata cylindrica; 21 days passed): 50%
- Average Height (Imperata cylindrica; 21 days passed): 45 cm
- Area Ratio of Weeds (Imperata cylindrica; 26 days passed): 50%
- Average Height (Imperata cylindrica; 26 days passed): 50 cm
- Area Ratio of Weeds (Imperata cylindrica; 54 days passed): 0%
- Average Height (Imperata cylindrica; 54 days passed): 0 cm
- Area Ratio of Weeds (Imperata cylindrica; 64 days passed): 0%
- Average Height (Imperata cylindrica; 64 days passed): 0 cm
- Area Ratio of Weeds (Imperata cylindrica; 67 days passed): 0%
- Average Height (Imperata cylindrica; 67 days passed): 0 cm
- Area Ratio of Weeds (Imperata cylindrica; 73 days passed): 0%
- Average Height (Imperata cylindrica; 73 days passed): 0 cm
- Area Ratio of Weeds (Imperata cylindrica; 78 days passed): 5%
- Average Height (Imperata cylindrica; 78 days passed): 5 cm
- Area Ratio of Weeds (Imperata cylindrica; 86 days passed): 5%
- Average Height (Imperata cylindrica; 86 days passed): 7 cm
- Area Ratio of Weeds (Imperata cylindrica; 91 days passed): 5%
- Average Height (Imperata cylindrica; 91 days passed): 7 cm
- Area Ratio of Weeds (Imperata cylindrica; 95 days passed): 5%
- Average Height (Imperata cylindrica; 95 days passed): 10 cm
- state of weeds the next day of treatment [3]: killed
- state of weeds the next day of treatment [4]: killed
- pH [5]: about 8.2
- time after spraying until weeds start to die ([6]; in autumn): 4 to 5 days
- time after spraying until weeds start to die ([6]; in summer): 1 to 2 days
- duration of spraying until weeds start to die [7]: 2-3 weeks

From patent publication US20020193252A1, “Weeding method with sodium hydrogen carbonate” (The Hiraoka Environmental Science Laboratory, priority 2001, published 2002)
